Values quoted from earlier work in the PKSmart pharmacokinetics tables (Seal et al. 2025).

How the values were obtained:
[1] = Lombardo et al. 2013, J Clin Pharmacol 53:178, doi 10.1177/0091270012440282; conditions: for Vd / clearance: in vivo, iv; for fraction unbound: plasma
[2] = Lombardo, Berellini, Obach 2018, Drug Metab Dispos 46:1466, doi 10.1124/dmd.118.082966; conditions: human; for MRT / Vd / clearance / half-life: in vivo, iv; for fraction unbound: plasma

Row | Compound | Vd ([1]; dog) [L/kg] | clearance ([1]; dog) [mL/min/kg] | fraction unbound ([1]; dog) | Vd ([1]; monkey) [L/kg] | clearance ([1]; monkey) [mL/min/kg] | fraction unbound ([1]; monkey) | Vd ([1]; rat) [L/kg] | clearance ([1]; rat) [mL/min/kg] | MRT [2] [h] | Vd [2] [L/kg] | clearance [2] [mL/min/kg] | half-life [2] [h] | fraction unbound [2] | fraction unbound ([1]; rat)
1 | CC(C)(ON=C(C(=O)NC1C(=O)N2C(C(=O)O)=C(C[n+]3ccccc3)CS[C@H]12)c1csc(N)n1)C(=O)[O-] (some centres undefined) | 0.21 | 3.2 | 1 | 0.26 | 2.1 | 0.945 | 0.3 | 8.7 | 2.2 | 0.31 | 2.4 | 1.8 | 0.79 | 
2 | COc1cc2c3cc1Oc1cc(ccc1O)C[C@@H]1c4c(cc(OC)c([O-])c4Oc4ccc(cc4)C[C@@H]3N(C)CC2)CC[N+]1(C)C | 0.37 | 3.73 |  |  |  |  |  |  | 2.2 | 0.45 | 3.4 | 2 | 0.58 | 
3 | CCCN(CCC)S(=O)(=O)c1ccc(C(=O)O)cc1 | 0.46 | 0.34 | 0.15 |  |  |  |  |  | 8.7 | 0.13 | 0.25 | 5.9 |  | 
4 | CCCCS(=O)(=O)NC(Cc1ccc(OCCCCC2CCNCC2)cc1)C(=O)O (centres undefined) | 0.52 | 36.4 | 0.55 |  |  |  | 1.42 |  | 1.8 | 0.34 | 3 | 1.6 | 0.36 | 0.15
5 | C[C@H]1NCc2cc(-c3ccc4c(=O)c(C(=O)O)cn(C5CC5)c4c3OC(F)F)ccc21 | 1.29 | 2.43 | 0.23 | 0.96 | 3.39 | 0.19 | 0.9 | 12.1 | 13.7 | 1 | 1.23 |  | 0.25 | 0.13
6 | C#C[C@]1(OS(=O)(=O)O)CC[C@H]2[C@@H]3CCc4cc(O)ccc4[C@H]3CC[C@@]21C |  |  |  | 8.7 | 13 |  |  |  | 7.8 | 0.61 | 1.3 | 9.3 |  | 
7 | CSc1ccc(C(=O)c2[nH]c(=O)[nH]c2C)cc1 | 2.1 | 26 |  |  |  |  |  |  | 1.33 | 1.48 | 19.1 | 1.94 | 0.3 | 
8 | O=NN(CCCl)C(=O)NCCCl | 1.1 | 17.8 |  | 0.9 | 21 |  |  |  | 0.26 | 1.2 | 78 | 0.37 | 0.23 | 
9 | O=P1(N(CCCl)CCCl)NCCCO1 (centres undefined) | 0.7 | 20 |  |  |  |  | 0.67 | 11.1 | 11 | 0.73 | 1.1 | 8 |  | 
10 | CCn1cc(C(=O)O)c(=O)c2cc(F)c(N3CCNCC3)nc21 |  |  |  |  |  |  | 1.8 | 42.7 | 6.2 | 2 | 5.4 | 5.1 | 0.8 | 
11 | CC[C@@H](CO)NCCN[C@@H](CC)CO | 3.8 | 13 |  |  |  |  |  |  | 2.7 | 1.7 | 10 | 3.1 | 0.18 | 
12 | Cc1cc(=O)n(-c2ccccc2)n1C | 0.09 | 6.3 | 0.6 | 0.74 | 4.6 | 0.908 | 0.81 | 9.1 | 20 | 0.77 | 0.64 | 12 |  | 1
13 | Nc1ccn([C@@H]2O[C@H](CO)[C@@H](O)[C@@H]2O)c(=O)n1 | 0.86 | 11.3 |  |  |  |  |  |  | 0.28 | 0.67 | 41.7 | 0.17 |  | 
14 | COc1ccc(Cc2nccc3cc(OC)c(OC)cc23)cc1OC | 3.01 | 21.8 | 0.1 |  |  |  |  |  | 1.4 | 1 | 11 | 1.8 |  | 0.09
15 | CC[C@H](OC(C)=O)C(C[C@H](C)N(C)C)(c1ccccc1)c1ccccc1 | 5.9 | 28 |  |  |  |  |  |  | 26 | 8.3 | 5.4 |  | 0.2 | 
16 | CN(C)CCCN1c2ccccc2CCc2ccc(Cl)cc21 | 3.7 | 23.3 | 0.01 |  |  |  |  |  | 26 | 13 | 8.2 |  |  | 
17 | Cc1ncc2n1-c1ccc(Cl)cc1C(c1ccccc1F)=NC2 | 1.1 | 35.2 | 0.0223 | 3 | 22.3 | 0.146 | 2.6 | 90 | 3.5 | 1.1 | 5.3 | 3.1 |  | 0.04
18 | Nc1ccn([C@@H]2O[C@H](CO)[C@@H](O)C2(F)F)c(=O)n1 | 1.41 | 10.8 | 0.765 | 5.5 | 177 |  | 1 | 5 | 0.81 | 1.5 | 32 | 1 | 1 | 0.93
19 | COCCCOc1ccnc(C[S+](O)c2nc3ccccc3[n-]2)c1C (centres undefined) | 2.62 | 86 | 0.0864 |  |  |  | 1.04 | 82.4 | 0.92 | 0.22 | 4 | 1 |  | 0.073
